Laboratory results taken from PubChem BioAssay (NCI).
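Grown in 96-well plates, cells were treated for 48 hours with each compound at five concentrations. Insufficient inhibition: endpoint recorded as highest concentration tested. Definition used: TGI = concentration required for complete inhibition of growth.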

Columns and labels:
Experiment in all cases: growth of human tumour cells (NCI), 48 h
786-0 renal = test system: 786-0 renal
A549 NSCLC = test system: A549 NSCLC
ACHN renal = test system: ACHN renal
CAKI-1 renal = test system: CAKI-1 renal
CCRF-CEM leukemia = test system: CCRF-CEM leukemia
COLO 205 colon = test system: COLO 205 colon
DLD-1 colon = test system: DLD-1 colon
DMS 114 small cell lung = test system: DMS 114 small cell lung
DMS 273 small cell lung = test system: DMS 273 small cell lung
EKVX NSCLC = test system: EKVX NSCLC
HCC-2998 colon = test system: HCC-2998 colon
HCT-116 colon = test system: HCT-116 colon
HCT-15 colon = test system: HCT-15 colon
HOP-62 NSCLC = test system: HOP-62 NSCLC
HT29 colon = test system: HT29 colon
IGROV1 ovarian = test system: IGROV1 ovarian
K-562 leukemia = test system: K-562 leukemia
KM12 colon = test system: KM12 colon
KM20L2 colon = test system: KM20L2 colon
LOX IMVI melanoma = test system: LOX IMVI melanoma
LXFL 529 NSCLC = test system: LXFL 529 NSCLC
M14 melanoma = test system: M14 melanoma
M19-MEL melanoma = test system: M19-MEL melanoma
MALME-3M melanoma = test system: MALME-3M melanoma
MOLT-4 leukemia = test system: MOLT-4 leukemia
NCI-H23 lung = test system: NCI-H23 lung
NCI-H460 lung = test system: NCI-H460 lung
NCI-H522 lung = test system: NCI-H522 lung
OVCAR-3 ovarian = test system: OVCAR-3 ovarian
OVCAR-4 ovarian = test system: OVCAR-4 ovarian
OVCAR-8 ovarian = test system: OVCAR-8 ovarian
RPMI-8226 leukemia = test system: RPMI-8226 leukemia
RXF 393 renal = test system: RXF 393 renal
SF-295 CNS = test system: SF-295 CNS
SF-539 CNS = test system: SF-539 CNS
SK-MEL-2 melanoma = test system: SK-MEL-2 melanoma
SK-MEL-5 melanoma = test system: SK-MEL-5 melanoma
SN12C renal = test system: SN12C renal
SNB-19 CNS = test system: SNB-19 CNS
SNB-75 CNS = test system: SNB-75 CNS
SR leukemia = test system: SR leukemia
SW-620 colon = test system: SW-620 colon
TK-10 renal = test system: TK-10 renal
U251 CNS = test system: U251 CNS
UACC-257 melanoma = test system: UACC-257 melanoma
UACC-62 melanoma = test system: UACC-62 melanoma
UO-31 renal = test system: UO-31 renal
A498 renal = test system: A498 renal
HL-60(TB) leukemia = test system: HL-60(TB) leukemia
HOP-92 NSCLC = test system: HOP-92 NSCLC
NCI-H226 lung = test system: NCI-H226 lung
OVCAR-5 ovarian = test system: OVCAR-5 ovarian
SF-268 CNS = test system: SF-268 CNS
SK-MEL-28 melanoma = test system: SK-MEL-28 melanoma
SK-OV-3 ovarian = test system: SK-OV-3 ovarian
SNB-78 CNS = test system: SNB-78 CNS

Measured: TGI

CNS(=O)(=O)NNS(=O)(=O)c1cccc([N+](=O)[O-])c1
not listed: A498 renal | HL-60(TB) leukemia | HOP-92 NSCLC | NCI-H226 lung | OVCAR-5 ovarian | SF-268 CNS | SK-MEL-28 melanoma | SK-OV-3 ovarian | SNB-78 CNS
> 100 µM: all other assays above

Cc1nc(-c2nc(C)c(C(=O)/C=C/c3ccc([N+](=O)[O-])cc3)s2)sc1C(=O)/C=C/c1ccc([N+](=O)[O-])cc1
not listed: CCRF-CEM leukemia | DMS 273 small cell lung | NCI-H522 lung | OVCAR-4 ovarian | SR leukemia
> 100 µM: all other assays above
